Assay results as given in publication PMC11542717 (ADMET & DMPK, 2024).
Where two headings read alike, the source gives them in different places.

Assays:
[1] = cited from earlier work; for CHIIAM: pharmaceuticals used for model construction (training set); for CHIIAM (predetermined): calibration set, established by isocratic measurement
[2] = format: physicochemical; conditions: IAM PC.DD2 column, pH 7.4, acetonitrile gradient, UV filters
[3] = test system: water flea (Daphnia magna); conditions: 48 h static, immobilization; ECHA database, converted to -log M; cited from earlier work
fish species = conditions: 96 h static; ECHA database, mg/L converted to -log M; cited from earlier work

Structure (SMILES)	CHIIAM [1]	CHIIAM (chromatographic phospholipid binding) [2]	pEC50 water flea (Daphnia magna), Experimental [3]	also measured
COc1cc(NS(=O)(=O)c2ccc(N)cc2)nc(OC)n1 [Sulfadimethoxine]	13.8			
Nc1ccc(S(=O)(=O)Nc2nccs2)cc1 [Sulfathiazole]	11.0			
CCCCC(CC)COC(=O)C(C#N)=C(c1ccccc1)c1ccccc1 (centres unmarked) [Octocrylene, octocrylene]		60.0	5.06	CHIIAM (chromatographic phospholipid binding) ([2]; listed as octocrylene): > 45; pLC50 fish, Experimental (fish species): 5.65
CCCCC(=O)c1ccccc1 [Valerophenone]				CHIIAM (predetermined) [1]: 37.3
Cc1ccc(C)c(OCCCC(C)(C)C(=O)O)c1 [Gemfibrozil]	33.7			
O=C(O)Cc1ccccc1Nc1c(Cl)cccc1Cl [Diclofenac]	34.1			
CN(C)CCC=C1c2ccccc2CCc2ccccc21 [Amitriptyline]	55.3			
CCCCCC(=O)c1ccccc1 [Hexanophenone]				CHIIAM (predetermined) [1]: 41.8
COc1cc(O)c(C(=O)c2ccccc2)cc1S(=O)(=O)O [Sulisobenzone, sulisobenzone]		14.3	3.79	CHIIAM (chromatographic phospholipid binding) ([2]; listed as sulisobenzone): < 20; pLC50 fish, Experimental (fish species): 2.69
CC(=O)c1ccccc1 [Acetophenone]				CHIIAM (predetermined) [1]: 17.2
Nc1ccc(S(=O)(=O)Nc2ccc(Cl)nn2)cc1 [Sulfachlorpyridazine]	7.67			
Cn1c(=O)c2[nH]cnc2n(C)c1=O [Theophylline]	1.80			
COc1ccc(C(=O)c2ccccc2)c(O)c1 [Oxybenzone, oxybenzone]		40.8	4.92	pLC50 fish, Experimental (fish species): 4.78
NC(=O)N1c2ccccc2C=Cc2ccccc21 [Carbamazepine]	26.9			
CCCC(=O)c1ccccc1 [Butyrophenone]				CHIIAM (predetermined) [1]: 32.0
COc1ccc([C@@H]2Sc3ccccc3N(CCN(C)C)C(=O)[C@@H]2OC(C)=O)cc1 [Diltiazem]	42.0			
CCCCCCC(=O)c1ccccc1 [Heptanophenone]				CHIIAM (predetermined) [1]: 45.7

Structure (SMILES)	CHIIAM [1]	CHIIAM (chromatographic phospholipid binding) [2]	pEC50 water flea (Daphnia magna), Experimental [3]	also measured
CC1(C)S[C@@H]2[C@H](NC(=O)[C@H](N)c3ccccc3)C(=O)N2[C@H]1C(=O)O [Ampicillin]	10.5			
Nc1ccc(C(=O)O)cc1 [4-Aminobenzoic Acid, 4-aminobenzoic acid]		3.30	3.26	CHIIAM (chromatographic phospholipid binding) ([2]; listed as aminobenzoic acid): < 20; pLC50 fish, Experimental (fish species): 2.12
COCCc1ccc(OCC(O)CNC(C)C)cc1 (centres unmarked) [Metoprolol]	35.4			
CC1COc2c(N3CCN(C)CC3)c(F)cc3c(=O)c(C(=O)O)cn1c23 (centres unmarked) [Ofloxacin]	28.9			
CC1CCC(C(C)C)C(OC(=O)c2ccccc2N)C1 (centres unmarked) [Meradimate, meradimate]		56.9	5.24	CHIIAM (chromatographic phospholipid binding) ([2]; listed as meradimate): > 45; pLC50 fish, Experimental (fish species): 4.48
CCCCC(CC)COC(=O)c1ccc(N(C)C)cc1 (centres unmarked) [Padimate O, padimate O]		53.6	4.69	pLC50 fish, Experimental (fish species): 4.85
COc1ccc(C(=O)CC(=O)c2ccc(C(C)(C)C)cc2)cc1 [Avobenzone, avobenzone]		53.4	5.20	CHIIAM (chromatographic phospholipid binding) ([2]; listed as avobenzone): > 45
COc1ccc(C(=O)c2ccccc2O)c(O)c1 [Dioxybenzone, dioxybenzone]		39.9	4.76	
CC1CC(OC(=O)c2ccccc2O)CC(C)(C)C1 (centres unmarked) [Homosalate, homosalate]		56.8		CHIIAM (chromatographic phospholipid binding) ([2]; listed as homosalate): > 45
CCc1nc(N)nc(N)c1-c1ccc(Cl)cc1 [Pyrimethamine]	38.2			
O=S(=O)(O)c1ccc2[nH]c(-c3ccccc3)nc2c1 [Ensulizole, ensulizole]		13.2	3.44	CHIIAM (chromatographic phospholipid binding) ([2]; listed as ensulizole): < 20; pLC50 fish, Experimental (fish species): 2.91
CCCCC(CC)COC(=O)C=Cc1ccc(OC)cc1 (centres unmarked) [Octinoxate, octinoxate]		54.2	5.03	CHIIAM (chromatographic phospholipid binding) ([2]; listed as octinoxate): > 45
CCC(=O)c1ccccc1 [Propiophenone]				CHIIAM (predetermined) [1]: 25.9
CCCCC(CC)COC(=O)c1ccccc1O (centres unmarked) [Octisalate, octisalate]		55.1	5.58	CHIIAM (chromatographic phospholipid binding) ([2]; listed as octisalate): > 45; pLC50 fish, Experimental (fish species): 4.40
CCCCCCCC(=O)c1ccccc1 [Octanophenone]				CHIIAM (predetermined) [1]: 49.4
COc1ccc(NS(=O)(=O)c2ccc(N)cc2)nn1 [Sulfamethoxypyridazine]	10.9			
Cc1ncc([N+](=O)[O-])n1CCO [Metronidazole]	-4.81			
